Reference: patent US20230312550A1, “N-(2-(4-CYANOTHIAZOLIDIN-3-YL)-2-OXOETHYL)-QUINOLINE-4-CARBOXAMIDES” (AstraZeneca AB, priority 2020, published 2023)
Converted amounts (≈) assume the structure as drawn.

Experiments:
[1] = target: human Fibroblast activation protein alpha (hFAP) (Homo sapiens (Human), UniProt Q12884); assay: hFAP inhibition assay (tight binders); type: biochemical; conditions: Ala-Pro-AMC 20 μM, n = 1 or geometric mean n = 2-6; note: hFAP 2.4 pM
Procedure: The plates were read on a PHERAstar® reader with excitation 340 nm and emission 460 nm. Data were analyzed in Genedata Screener®. IC50 values were determined by plotting % inhibition versus log compound concentration and using a one site dose response model.

[2] = Metabolic stability in rat hepatocytes (rHep); conditions: n = 1 or geometric mean of n = 2-3
[3] = target: Prolyl endopeptidase, Prolyl Oligopeptidase (hPREP) (Homo sapiens (Human), UniProt P48147); assay: hPrep inhibition assay; type: biochemical; conditions: hPREP 0.6 nM, Z-Gly-Pro-amino-methylcoumarin 50 μM; read-out: PREP IC50
Sequence of Prolyl endopeptidase, Prolyl Oligopeptidase (hPREP) (P48147 whole entry): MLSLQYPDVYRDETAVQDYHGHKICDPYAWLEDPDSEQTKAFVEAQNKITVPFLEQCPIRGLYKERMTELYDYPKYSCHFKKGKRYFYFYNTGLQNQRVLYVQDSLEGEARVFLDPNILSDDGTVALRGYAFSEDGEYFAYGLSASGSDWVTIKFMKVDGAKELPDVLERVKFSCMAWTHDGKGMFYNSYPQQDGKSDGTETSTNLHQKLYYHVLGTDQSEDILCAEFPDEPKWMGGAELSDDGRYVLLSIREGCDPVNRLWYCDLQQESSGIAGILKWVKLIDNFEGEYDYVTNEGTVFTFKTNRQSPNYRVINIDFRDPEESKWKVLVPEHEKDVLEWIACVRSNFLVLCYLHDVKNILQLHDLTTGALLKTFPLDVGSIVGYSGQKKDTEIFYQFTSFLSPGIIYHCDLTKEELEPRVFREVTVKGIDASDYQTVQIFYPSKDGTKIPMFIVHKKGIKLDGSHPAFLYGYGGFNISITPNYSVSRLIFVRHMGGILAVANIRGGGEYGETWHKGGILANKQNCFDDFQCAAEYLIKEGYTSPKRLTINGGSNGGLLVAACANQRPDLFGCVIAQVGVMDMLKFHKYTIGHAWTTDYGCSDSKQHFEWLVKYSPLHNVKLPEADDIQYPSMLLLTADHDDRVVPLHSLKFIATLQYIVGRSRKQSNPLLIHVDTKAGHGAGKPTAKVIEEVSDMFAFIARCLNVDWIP
How it was run: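 Recombinant human PREP at 0.6 nM final with Z-Gly-Pro-AMC substrate at 50 μM final in Tris-HCl pH 7.5, NaCl, Triton X-100, glutathione; 15 min rt preincubation then 20 min rt reaction in dark. AMC fluorescence (ex 340/em 460 nm); IC50 from one-site dose-response fit of % inhibition.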

[4] = Kinetic solubility; conditions: kinetic from dmso stock
Procedure: Kinetic solubility was measured as described in Comput Aided Mol Des 2015, 29, 795.

[5] = Metabolic stability in human hepatocytes (hHep); type: in vitro ADME; conditions: n = 1 or geometric mean of n = 2
[6] = Metabolic stability in human liver microsomes (HLM); conditions: human
Procedure: Metabolic stability in HLM was measured as described in J Comput Aided Mol Des 2015, 29, 795.

[7] = Caco-2 cell permeability; conditions: human
Procedure: Caco-2 cell permeability was measured as described in Mol Pharm 2017, 14, 1601.

[8] = target: hFAP (M39-A757) (Homo sapiens (Human), UniProt Q12884); assay: hFAP binding assay (surface plasmon resonance); conditions: SPR, 20° C.; for hFAP Binding assay k(off) / hFAP Binding assay k(on): single cycle kinetics; for Kd: n = 1 or geometric mean n = 2-4
Sequence of hFAP (M39-A757) (Q12884 39-757): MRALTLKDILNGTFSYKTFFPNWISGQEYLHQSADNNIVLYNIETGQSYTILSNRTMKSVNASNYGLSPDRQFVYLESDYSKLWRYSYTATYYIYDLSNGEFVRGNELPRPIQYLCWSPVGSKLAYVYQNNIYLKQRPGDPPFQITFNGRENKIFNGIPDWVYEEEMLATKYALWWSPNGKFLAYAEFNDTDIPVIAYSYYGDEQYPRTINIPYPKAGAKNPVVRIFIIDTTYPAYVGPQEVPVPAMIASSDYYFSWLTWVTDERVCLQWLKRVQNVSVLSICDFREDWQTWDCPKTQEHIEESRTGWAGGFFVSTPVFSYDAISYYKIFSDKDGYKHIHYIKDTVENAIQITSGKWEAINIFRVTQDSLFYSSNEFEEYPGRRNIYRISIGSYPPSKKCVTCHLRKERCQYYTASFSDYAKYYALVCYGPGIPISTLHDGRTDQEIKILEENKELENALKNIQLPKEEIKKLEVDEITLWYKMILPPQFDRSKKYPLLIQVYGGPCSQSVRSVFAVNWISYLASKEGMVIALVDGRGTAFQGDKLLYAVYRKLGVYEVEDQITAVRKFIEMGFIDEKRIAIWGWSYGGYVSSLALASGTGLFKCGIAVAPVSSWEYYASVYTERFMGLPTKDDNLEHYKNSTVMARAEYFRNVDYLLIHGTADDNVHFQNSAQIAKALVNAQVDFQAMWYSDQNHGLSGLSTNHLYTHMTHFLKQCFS

[9] = target: FAP (Homo sapiens (Human), UniProt Q12884); assay: hFAP inhibition assay; type: biochemical; conditions: hFAP […], Ala-Pro-AMC 20 μM; n = 1 or geometric mean n = 2-3
Sequence of FAP (Q12884 38-760): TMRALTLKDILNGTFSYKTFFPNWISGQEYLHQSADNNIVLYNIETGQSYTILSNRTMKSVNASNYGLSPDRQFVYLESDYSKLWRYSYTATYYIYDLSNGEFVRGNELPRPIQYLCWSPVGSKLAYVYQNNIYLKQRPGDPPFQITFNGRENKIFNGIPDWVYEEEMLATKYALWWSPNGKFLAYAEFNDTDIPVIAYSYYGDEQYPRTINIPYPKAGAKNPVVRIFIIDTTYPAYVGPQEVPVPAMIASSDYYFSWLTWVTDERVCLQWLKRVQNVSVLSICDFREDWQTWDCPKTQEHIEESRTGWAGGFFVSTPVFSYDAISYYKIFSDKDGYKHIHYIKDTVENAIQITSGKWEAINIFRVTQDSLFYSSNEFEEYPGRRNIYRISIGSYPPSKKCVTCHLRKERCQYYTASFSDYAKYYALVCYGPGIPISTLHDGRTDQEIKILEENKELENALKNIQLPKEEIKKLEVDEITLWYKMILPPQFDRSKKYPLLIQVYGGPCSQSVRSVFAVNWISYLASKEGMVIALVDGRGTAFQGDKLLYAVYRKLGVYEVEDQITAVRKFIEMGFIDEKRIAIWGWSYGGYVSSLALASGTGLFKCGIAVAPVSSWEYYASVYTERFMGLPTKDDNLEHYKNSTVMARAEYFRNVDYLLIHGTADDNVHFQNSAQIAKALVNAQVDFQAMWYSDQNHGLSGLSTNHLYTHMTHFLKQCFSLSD
How it was run: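 Human FAP (0.48 nM) in 100 mM Tris HCl, 100 mM NaCl, 0.05% Chaps, pH 7.4 was preincubated 15 min at rt in the dark with compounds (10-point, 3-fold series from 50 μM). Substrate was added from a 40 μM solution, then 30 min at rt. Fluorescence read at ex 340/em 460 nm; IC50 from one-site dose-response fit of % inhibition.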

[10] = Solubility, kinetic solubility, n = 1 or average of n = 2-3
[11] = HLM CLint, n = 1 or average of n = 2-3

Sequence of human Fibroblast activation protein alpha (hFAP) (Q12884 38-760): as above

Row | Compound | IC50 [1] [nM] | rHep CLint [2] [μL/min/1E6] | IC50 [3] [nM] | solubility [4, 10] [µM] | hHep CLint [5] [μL/min/1E6] | microsomal CLint [6, 11] [µL/min/mg] | Papp A→B [7] [×10⁻⁶ cm/s] | Papp B→A [7] [×10⁻⁶ cm/s] | efflux ratio [7] | hFAP Binding assay k(off) [8] [s⁻¹] | hFAP Binding assay k(on) [8] [M⁻¹ s⁻¹] | Kd [8] [nM] | IC50 [9] [nM] | solubility [4] [µM] | microsomal CLint [6] [µL/min/mg] | Papp [7] [×10⁻⁶ cm/s]
1 | N#C[C@@H]1CSCN1C(=O)CNC(=O)c1ccnc2ccc(N3CCCCO3)cc12 [Example 1, (R)—N-(2-(4-Cyanothiazolidin-3-yl)-2-oxoethyl)-6-(1,2-oxazinan-2-yl)-quinoline-4-carboxamide] | 0.099 | 4.9 | 410 | > 1000 | <1 | 14 | 4.7 | 29 | 6.1 | 0.00014 | 730000 | 0.18 |  |  |  | 
2 | CC1(C)COC12CN(c1ccc3nccc(C(=O)NCC(=O)N4CSC[C@H]4C#N)c3c1)C2 [Example 18, (R)—N-(2-(4-Cyanothiazolidin-3-yl)-2-oxoethyl)-6-(3,3-dimethyl-1-oxa-6-azaspiro[3.3]heptan-6-yl)quinoline-4-carboxamide] | 0.047 | 6 | 570 |  | 3.7 |  | 0.9 | 31 | 34 | 0.000059 | 1400000 | 0.068 | 0.19 | 93 (≈ 42 µg/mL) | 22 | 13
3 | N#C[C@@H]1CSCN1C(=O)CNC(=O)c1ccnc2ccc(N3CC(F)C3)cc12 [Example 21, (R)—N-(2-(4-Cyanothiazolidin-3-yl)-2-oxoethyl)-6-(3-fluoroazetidin-1-yl)quinoline-4-carboxamide] | 0.11 | 17 | 93 | 390 (≈ 156 µg/mL) | <1 | 15 | 3.7 | 23 | 6.2 | 0.0002 | 3000000 | 0.066 | 0.29 |  |  | 
4 | COCC1(C)CN(c2ccc3nccc(C(=O)NCC(=O)N4CSC[C@H]4C#N)c3c2)C1 [Example 29, (R)—N-(2-(4-Cyanothiazolidin-3-yl)-2-oxoethyl)-6-(3-(methoxymethyl)-3-methylazetidin-1-yl)quinoline-4-carboxamide] | 0.055 | 4.5 | 500 | 560 (≈ 246 µg/mL) | <1 | 18 | 3.7 | 37 | 10 | 0.000061 | 1100000 | 0.057 | 0.13 |  |  | 26
5 | CO[C@@H]1CN(c2ccc3nccc(C(=O)NCC(=O)N4CSC[C@H]4C#N)c3c2)[C@H]1C [Example 30, N-(2-((R)-4-Cyanothiazolidin-3-yl)-2-oxoethyl)-6-((2S,3R)-3-methoxy-2-methylazetidin-1-yl)quinoline-4-carboxamide] | 0.12 | 7.2 | 510 | > 1000 | <1 | < 3 | 3.1 | 30 | 9.6 | 0.00022 | 5200000 | 0.042 | 0.28 |  |  | 15
6 | N#C[C@@H]1CSCN1C(=O)CNC(=O)c1ccnc2ccc(N3CCCCC3)cc12 [Example 32, (R)—N-(2-(4-Cyanothiazolidin-3-yl)-2-oxoethyl)-6-(piperidin-1-yl)quinoline-4-carboxamide] | 0.16 | 19 | 450 | 240 (≈ 98.3 µg/mL) | 4.1 | 40 | 8.7 | 28 | 3.3 | 0.000029 | 1300000 | 0.022 | 0.3 |  |  | 
7 | C[C@@H]1COC[C@H](C)N1c1ccc2nccc(C(=O)NCC(=O)N3CSC[C@H]3C#N)c2c1 [Example 90, N-(2-((R)-4-Cyanothiazolidin-3-yl)-2-oxoethyl)-6-((3S,5R)-3,5-dimethyl-morpholino)quinoline-4-carboxamide] | 0.35 | 20 | 1100 | > 1000 | 4.6 | 100 | 1.2 | 19 | 16 | 0.00010 | 480000 | 0.38 | 0.75 |  |  | 
8 | CS(=O)(=O)C[C@H]1CN(c2ccc3nccc(C(=O)NCC(=O)N4CSC[C@H]4C#N)c3c2)CCO1 [Example 92, N-(2-((R)-4-Cyanothiazolidin-3-yl)-2-oxoethyl)-6-((R)-2-((methylsulfonyl)-methyl)morpholino)quinoline-4-carboxamide] | 0.074 | 1.7 | 2400 | 810 (≈ 408 µg/mL) | <1 | 14 | 0.12 | 4.2 | 35 | 0.00011 | 2200000 | 0.047 |  |  |  | 
9 | CS(=O)(=O)C[C@@H]1CN(c2ccc3nccc(C(=O)NCC(=O)N4CSC[C@H]4C#N)c3c2)CCO1 [Example 94, N-(2-((R)-4-Cyanothiazolidin-3-yl)-2-oxoethyl)-6-((S)-2-((methylsulfonyl)-methyl)morpholino)quinoline-4-carboxamide] | 0.071 | 2.2 | 1800 | 920 (≈ 463 µg/mL) | <1 | 7.1 | 0.15 | 4.4 | 29 | 0.000099 | 1900000 | 0.074 |  |  |  | 
10 | N#C[C@@H]1CSCN1C(=O)CNC(=O)c1ccnc2ccc(N3CCOC4(CCOCC4)C3)cc12 [Example 99, (R)—N-(2-(4-cyanothiazolidin-3-yl)-2-oxoethyl)-6-(1,9-dioxa-4-azaspiro[5.5]undecan-4-yl)quinoline-4-carboxamide] | 0.12 | 8.1 | 1100 |  | 1.9 |  | 0.46 | 21 | 46 | 0.0002 | 2100000 | 0.11 |  | 800 (≈ 385 µg/mL) | 16 | 
